Publication PMC5640878, “The GlyR Extracellular β8–β9 Loop – A Functional Determinant of Agonist Potency” (Frontiers in Molecular Neuroscience, 2017)
Like-named read-outs stand apart in the source and are kept apart here.

Tests used:
GlyRα1^Q177Rβ = GlyRα1^Q177Rβ (UniProt P48167+Q64018, Q205R); experiment: whole-cell patch clamp recordings of transfected HEK293 cells
Experimental: (§3) HEK293 cells were transiently transfected using a modified calcium phosphate precipitation method. A mixture of plasmid DNA, CaCl2, 0.1x TE buffer and 2x HBS (50 mM HEPES, 12 mM glucose, 10 mM KCl, 280 mM NaCl, 1.5 mM Na2HPO4) was applied onto the cells. A GlyRα1 to GlyRβ ratio of 1:2 was used for co-expression. For GlyRα1:GlyRβ:GFP co-expression, a ratio of 1:2:1 was transfected. The same amount of DNA was used for GlyRα1 WT and mutants. Media were exchanged after 6–24 h. Immunocytochemical stainings and electrophysiological experiments were always done 24 h after transfection, biotinylation experiments were performed 48 h after transfection.
(§4) The patch clamp technique was used to measure current amplitudes (I) of transfected HEK293 cells. Currents were amplified using an EPC-9 amplifier and the software Patchmaster (HEKA, Lambrecht, Germany). Cells were patched 24 h after transfection in a whole-cell configuration mode. […] All agonist and antagonists were applied using an Octaflow II system (ALA Scientific Instruments, Farmingdale, NY, United States). The extracellular buffer consisted of (in mM): 137 NaCl, 5.4 KCl, 1.8 CaCl2, 1 MgCl2, 5 HEPES, pH adjusted to 7.4 with NaOH. The intracellular buffer contained (in mM): 120 CsCl, 20 N(Et)4Cl, 1 CaCl2, 2 MgCl2, 11 EGTA, 10 HEPES, pH adjusted to 7.2 with CsOH. Recording pipettes with an open resistance of 4–6 MΩ were manufactured from borosilicate capillaries using a P97 horizontal puller (Sutter Instrument, Novato, CA, United States). Cells were held at -60 mV and fast capacitances were in range of 11–13 pF. All experiments were performed at room temperature.
(§5) The following Hill equation was used: I = Imax ^∗ c^nHill/(c^nHill + EC50^nHill). I refers to the current amplitude at the given agonist concentration c, Imax is the current amplitude at a saturating agonist, EC50 refers to the agonist concentration evoking half-maximal current responses and nHill is the Hill coefficient.

GlyRα1^Q177Nβ = GlyRα1^Q177Nβ (UniProt P48167+Q64018, Q205N); experiment: as above
GlyRα1β WT = target: T1, GlyRα1β WT (UniProt P48167+Q64018); experiment: as above; type: cell-based, murine
T1 construct: expressed in transfected cells; host or cells: HEK293
Experimental: (§1) Media were exchanged after 6–24 h.
(§2) All experiments were performed at room temperature.

GlyRα1^Q177K = conditions: shaky mouse; ref Schaefer et al., 2017; cited from earlier work
GlyRα1^Q177Wβ = GlyRα1^Q177Wβ (UniProt P48167+Q64018, Q205W); experiment: whole-cell patch clamp recordings of transfected HEK293 cells
Experimental: as §3, §4, §5

GlyRα1^Q177Eβ = GlyRα1^Q177Eβ (UniProt P48167+Q64018, Q205E); experiment: as above
Experimental: as §3, §4, §5

GlyRα1^Q177Gβ = GlyRα1^Q177Gβ (UniProt P48167+Q64018, Q205G); experiment: as above
Experimental: as §3, §4, §5

GlyRα1^Q177Kβ = GlyRα1^Q177Kβ (UniProt P48167+Q64018, Q205K); experiment: as above
Experimental: as §3, §4, §5

[1] = system: GlyR R65 mutated to lysine; conditions: ref Grudzinska et al., 2005; cited from earlier work
[2] = system: GlyR R65 mutated to alanine; conditions: ref Grudzinska et al., 2005; cited from earlier work
GlyRα1^Q177Aβ = GlyRα1^Q177Aβ (UniProt P48167+Q64018, Q205A); experiment: whole-cell patch clamp recordings of transfected HEK293 cells
Experimental: as §3, §4, §5

GlyRα1^Q177β variants = conditions: saturating glycine (1 mM); HEK293, whole-cell
Experimental: as §1, §2

GlyRα1^Q177Dβ = GlyRα1^Q177Dβ (UniProt P48167+Q64018, Q205D); experiment: whole-cell patch clamp recordings of transfected HEK293 cells
Experimental: as §3, §4, §5

GlyRα1^Q177Cβ = GlyRα1^Q177Cβ (UniProt P48167+Q64018, Q205C); experiment: as above
Experimental: as §3, §4, §5

[3] = 100 μM taurine, HEK293, whole-cell
[4] = 10 mM taurine, HEK293, whole-cell, mutant probably not completely saturated
[5] = Hill coefficient of taurine concentration-response curve
[6] = 100 μM glycine, HEK293, co-expressed with GlyRβ, whole-cell
[7] = Hill coefficient of glycine concentration-response curve
[8] = read-out: EC50 glycine, HEK293, α1:β 1:2, whole-cell currents, 1–3000 μM glycine
[9] = 100 μM β-alanine, HEK293, whole-cell
[10] = Hill coefficient of β-alanine concentration-response curve
[11] = saturating 10 mM β-alanine, HEK293, whole-cell

## NCCS(=O)(=O)O [taurine]
GlyRα1^Q177Rβ; [3]
  agonist-induced inward current at 100 μM taurine: 0 ± 0 nA
GlyRα1^Q177Rβ; [4]
  absolute current amplitude at 10 mM taurine (efficacy): 3.1 ± 0.4 nA
GlyRα1^Q177Rβ; [5]
  nH taurine: 1.5
GlyRα1^Q177Rβ; human, hek293 cells
  increase of the EC50 for taurine compared to GlyRα1β WT: 5 fold
GlyRα1^Q177Nβ; [3]
  agonist-induced inward current at 100 μM taurine: 0.02 ± 0.001 nA
GlyRα1^Q177Nβ; [4]
  absolute current amplitude at 10 mM taurine (efficacy): 2.7 ± 0.5 nA
GlyRα1^Q177Nβ; [5]
  nH taurine: 1.6
GlyRα1^Q177Nβ; human, hek293 cells
  increase of the EC50 for taurine compared to GlyRα1β WT: 2.1 fold
GlyRα1β WT; [3]
  agonist-induced inward current at 100 μM taurine: 0.13 ± 0.06 nA
GlyRα1β WT; 10 mM taurine, HEK293, whole-cell
  absolute current amplitude at 10 mM taurine (efficacy): 5.7 ± 0.4 nA
GlyRα1β WT; HEK293, co-expressed with GlyRβ, whole-cell, 3–10000 μM taurine, read-out: EC50 taurine
  EC50: 593 ± 18 µM
GlyRα1β WT; [5]
  nH taurine: 2.3

## O=C1C[C@@H]2OCC=C3CN4CC[C@]56c7ccccc7N1[C@H]5[C@H]2[C@H]3C[C@H]46 [strychnine]
GlyRα1^Q177K
  binding to the mutated receptor compared to GlyRα1 WT: bound with the same efficiency

## NCC(=O)O [glycine]
GlyRα1^Q177Wβ
  increase in glycine EC50 compared to GlyRα1β WT: 2.2 fold
GlyRα1^Q177Wβ; [6]
  Mean Igly 100 μM ± SEM: 1.8 ± 0.3 nA
GlyRα1^Q177Wβ; [7]
  nH glycine: 3.7
GlyRα1^Q177Wβ; [8]
  EC50: 130 ± 12 µM
GlyRα1^Q177Eβ
  increase in glycine EC50 compared to GlyRα1β WT: 1.8 fold
GlyRα1^Q177Eβ; [6]
  Mean Igly 100 μM ± SEM: 1.6 ± 0.2 nA
GlyRα1^Q177Eβ; [7]
  nH glycine: 2.6
GlyRα1^Q177Gβ
  increase in glycine EC50 compared to GlyRα1β WT: 4.5 fold
GlyRα1^Q177Gβ; [6]
  Mean Igly 100 μM ± SEM: 0.3 ± 0.08 nA
GlyRα1^Q177Gβ; [7]
  nH glycine: 2.5
GlyRα1^Q177Gβ; [8]
  EC50: 262 ± 13 µM
GlyRα1^Q177Kβ
  increase in glycine EC50 compared to GlyRα1β WT: 5.3 fold
GlyRα1^Q177Kβ; [6]
  Mean Igly 100 μM ± SEM: 0.6 ± 0.07^∗∗∗ nA
GlyRα1^Q177Kβ; [7]
  nH glycine: 2.2
GlyRα1^Q177Kβ; [8]
  EC50: 312 ± 7 µM
[1]
  decrease in glycine EC50: 200 fold
[2]
  decrease in glycine EC50: 1250 fold
GlyRα1^Q177Aβ
  increase in glycine EC50 compared to GlyRα1β WT: 3.6 fold
GlyRα1^Q177Aβ; [6]
  Mean Igly 100 μM ± SEM: 0.8 ± 0.3 nA
GlyRα1^Q177Aβ; [7]
  nH glycine: 2.0
GlyRα1^Q177Aβ; [8]
  EC50: 208 ± 22 µM
GlyRα1^Q177β variants
  Imax values in comparison to GlyRα1β WT: No significant differences
GlyRα1^Q177Dβ
  increase in glycine EC50 compared to GlyRα1β WT: 2.3 fold
GlyRα1^Q177Dβ; [6]
  Mean Igly 100 μM ± SEM: 0.9 ± 0.3 nA
GlyRα1^Q177Dβ; [7]
  nH glycine: 3.4
GlyRα1^Q177Dβ; [8]
  EC50: 137 ± 4 µM
GlyRα1^Q177K
  binding to the mutated receptor compared to GlyRα1 WT: bound with the same efficiency
GlyRα1^Q177Rβ
  increase in glycine EC50 compared to GlyRα1β WT: 4 fold
GlyRα1^Q177Rβ; [6]
  Mean Igly 100 μM ± SEM: 0.8 ± 0.07 nA
GlyRα1^Q177Rβ; [7]
  nH glycine: 2.0
GlyRα1^Q177Rβ; [8]
  EC50: 231 ± 4 µM
GlyRα1^Q177Nβ
  increase in glycine EC50 compared to GlyRα1β WT: 1.6 fold
GlyRα1^Q177Nβ; [6]
  Mean Igly 100 μM ± SEM: 1.2 ± 0.2 nA
GlyRα1^Q177Nβ; [7]
  nH glycine: 3.0
GlyRα1β WT; [6]
  Mean Igly 100 μM ± SEM: 3.8 ± 0.3 nA
GlyRα1β WT; [7]
  nH glycine: 1.9
GlyRα1β WT; [8]
  EC50: 58 ± 4 µM
GlyRα1^Q177Cβ
  increase in glycine EC50 compared to GlyRα1β WT: 1.5 fold
GlyRα1^Q177Cβ; [6]
  Mean Igly 100 μM ± SEM: 1.8 ± 0.3 nA
GlyRα1^Q177Cβ; [7]
  nH glycine: 2.1

## NCCC(=O)O [β-alanine]
GlyRα1^Q177Rβ
  EC50: 359 ± 19 µM
GlyRα1^Q177Rβ; [9]
  agonist-induced inward current at 100 μM β-alanine: 0.2 ± 0.07 nA
GlyRα1^Q177Rβ; [10]
  nH β-alanine: 1.9
GlyRα1^Q177Rβ; [11]
  absolute current amplitude at 10 mM β-alanine: 4.5 ± 0.9 nA
GlyRα1^Q177Nβ
  EC50: 203 ± 17 µM
GlyRα1^Q177Nβ; [9]
  agonist-induced inward current at 100 μM β-alanine: 0.87 ± 0.4 nA
GlyRα1^Q177Nβ; [10]
  nH β-alanine: 1.7
GlyRα1^Q177Nβ; [11]
  absolute current amplitude at 10 mM β-alanine: 4.1 ± 0.8 nA
GlyRα1β WT; [9]
  agonist-induced inward current at 100 μM β-alanine: 1.3 ± 0.3 nA
GlyRα1β WT; HEK293, co-expressed with GlyRβ, whole-cell, 3–10000 μM β-alanine, read-out: EC50 β-alanine
  EC50: 157 ± 7 µM
GlyRα1β WT; [10]
  nH β-alanine: 2.6
GlyRα1β WT; [11]
  absolute current amplitude at 10 mM β-alanine: 5.3 ± 2 nA
